The subject of test [1] is Eca-109/VCR. The experiment in a line: Antiproliferative activity against human Eca-109/VCR cells assessed as reduction in cell viability at 10 uM incubated for 48 hrs by CCK-8 assay. It counts as functional, cell-based. (Formazan colour is commonly taken as a measure of viable cells.)
Test [2] concerns Eca-109/VCR. The experiment in a line: Reversal of vincristine resistance in human Eca-109/VCR cells assessed as reversal fold by measuring ratio of vincristine IC50 to vincristine IC50 in presence of test compound at 5 uM incubated for 48 hrs by CCK8 assay. It counts as functional.
Test [3] concerns Eca-109/VCR. Description: Antiproliferative activity against human Eca-109/VCR cells assessed as cell viability at 5 uM incubated for 48 hrs by CCK-8 assay (reference value: 100 +/- 1.8%). It counts as functional. To be noted: read-out: Activity.
Test [4] is described as follows: Reversal of vincristine resistant in human Eca-109/VCR cells assessed as reversal fold by measuring ratio of docetaxel IC50 to docetaxel IC50 in presence of test compound at 5 uM incubated for 48 hrs by CCK8 assay. It counts as functional.
Test [5] relates to Eca-109/VCR. Description: Induction of apoptosis in human Eca-109/VCR cells assessed as early apoptotic cells at 1 uM incubated for 48 hrs in presence of vincristine at 50 nM by Annexin V-FITC/DAPI staining based flow cytometry analysis (reference value: 1.33 %). Type of test: functional. (A flow cytometer gives signals particle by particle.)
The subject of test [6] is Eca-109/VCR. The experiment in a line: Induction of apoptosis in human Eca-109/VCR cells assessed as necrotic cells at 5 uM incubated for 48 hrs by Annexin V-FITC/DAPI staining based flow cytometry analysis (reference value: 0.073 %). It counts as functional.
A short description of test [7]: Reversal of vincristine resistant in human Eca-109/VCR cells assessed as reversal fold by measuring ratio of mitoxantrone IC50 to mitoxantrone IC50 in presence of test compound at 5 uM incubated for 48 hrs by CCK8 assay. Type of test: functional.
The subject of test [8] is Eca-109/VCR. Description: Induction of apoptosis in human Eca-109/VCR cells assessed as late apoptotic cells at 5 uM incubated for 48 hrs by Annexin V-FITC/DAPI staining based flow cytometry analysis (reference value: 4.31 %). Type of test: functional.
The test system of test [9] is Eca-109/VCR. Description: Induction of apoptosis in human Eca-109/VCR cells assessed as early apoptotic cells at 5 uM incubated for 48 hrs in presence of vincristine at 50 nM by Annexin V-FITC/DAPI staining based flow cytometry analysis (reference value: 1.33 %). Type of test: functional.
The subject of test [10] is Eca-109/VCR. The experiment in a line: Reversal of vincristine resistance in human Eca-109/VCR cells assessed as effect on P-gp protein expression at 5 to 10 uM incubated for 24 hrs by Western blotting analysis. The note with it: dose 5-10 µM. It counts as functional, cell-based.
The test system of test [11] is Eca-109/VCR. Description: Effect on ABCG2 protein expression in human Eca-109/VCR cells at 5 to 10 uM incubated for 24 hrs by Western blotting analysis. Type of test: functional, cell-based. The note with it: dose 5-10 µM.
Test [12] is described as follows: Reversal of vincristine resistant in human Eca-109/VCR cells assessed as reversal fold by measuring ratio of doxorubicin IC50 to doxorubicin IC50 in presence of test compound at 5 uM incubated for 48 hrs by CCK8 assay. It counts as functional.
Test [13] has as its system Eca-109/VCR. The experiment in a line: Induction of apoptosis in human Eca-109/VCR cells assessed as viable cells at 1 uM incubated for 48 hrs by Annexin V-FITC/DAPI staining based flow cytometry analysis (reference value: 94.6 %). Type of test: functional. To be noted: read-out: Activity.
The test system of test [14] is Eca-109/VCR. The experiment in a line: Effect on MRP1 protein expression in human Eca-109/VCR cells at 5 to 10 uM incubated for 24 hrs by Western blotting analysis. Type of test: functional, cell-based. To be noted: dose 5-10 µM. On the technique in general: Immunoblotting shows a protein as a band on a membrane.
Test [15] relates to Eca-109/VCR. The experiment in a line: Induction of apoptosis in human Eca-109/VCR cells assessed as early apoptotic cells at 5 uM incubated for 48 hrs by Annexin V-FITC/DAPI staining based flow cytometry analysis (reference value: 0.97 %). Type of test: functional.
Test [16] relates to Eca-109/VCR. Description: Induction of apoptosis in human Eca-109/VCR cells assessed as late apoptotic cells at 5 uM incubated for 48 hrs in presence of vincristine at 50 nM by Annexin V-FITC/DAPI staining based flow cytometry analysis (reference value: 5.06 %). It counts as functional.
The test system of test [17] is Eca-109/VCR. The experiment in a line: Induction of apoptosis in human Eca-109/VCR cells assessed as necrotic cells at 5 uM incubated for 48 hrs in presence of vincristine at 50 nM by Annexin V-FITC/DAPI staining based flow cytometry analysis (reference value: 0.062 %). It counts as functional.
Test [18] relates to Eca-109/VCR. Description: Induction of apoptosis in human Eca-109/VCR cells assessed as viable cells at 5 uM incubated for 48 hrs in presence of vincristine at 50 nM by Annexin V-FITC/DAPI staining based flow cytometry analysis (reference value: 93.5 %). It counts as functional. To be noted: read-out: Activity.
Test [19] relates to Eca-109/VCR. The experiment in a line: Inhibition of colony formation in human Eca-109/VCR cells assessed as reduction in number of colonies incubated for 48 hrs in presence of vincristine by crystal violet staining based assay. It counts as functional, cell-based. The note with it: dose 0-2 µM.
The test system of test [20] is Eca-109/VCR. Description: Induction of apoptosis in human Eca-109/VCR cells assessed as late apoptotic cells at 1 uM incubated for 48 hrs in presence of vincristine at 50 nM by Annexin V-FITC/DAPI staining based flow cytometry analysis (reference value: 5.06 %). It counts as functional.
The subject of test [21] is Eca-109/VCR. The experiment in a line: Inhibition of colony formation in human Eca-109/VCR cells at 0 to 2 uM incubated for 48 hrs by crystal violet staining based assay. Type of test: functional, cell-based. To be noted: dose 0-2 µM.
Test [22] deals with Eca-109/VCR. Description: Induction of apoptosis in human Eca-109/VCR cells assessed as viable cells at 5 uM incubated for 48 hrs by Annexin V-FITC/DAPI staining based flow cytometry analysis (reference value: 94.6 %). The note with it: read-out: Activity. Type of test: functional.
Test [23] in a line: Reversal of vincristine resistant in human Eca-109/VCR cells assessed as reversal fold by measuring ratio of colchicine IC50 to colchicine IC50 in presence of test compound at 5 uM incubated for 48 hrs by CCK8 assay. It counts as functional.
The subject of test [24] is Eca-109/VCR. The experiment in a line: Induction of apoptosis in human Eca-109/VCR cells assessed as early apoptotic cells at 1 uM incubated for 48 hrs by Annexin V-FITC/DAPI staining based flow cytometry analysis (reference value: 0.97 %). Type of test: functional.
The subject of test [25] is Eca-109/VCR. Description: Induction of apoptosis in human Eca-109/VCR cells assessed as viable cells at 1 uM incubated for 48 hrs in presence of vincristine at 50 nM by Annexin V-FITC/DAPI staining based flow cytometry analysis (reference value: 93.5 %). The note with it: read-out: Activity. Type of test: functional.
Test [26] concerns Eca-109/VCR. Description: Induction of apoptosis in human Eca-109/VCR cells assessed as necrotic cells at 1 uM incubated for 48 hrs in presence of vincristine at 50 nM by Annexin V-FITC/DAPI staining based flow cytometry analysis (reference value: 0.062 %). It counts as functional.
Test [27] relates to Eca-109/VCR. The experiment in a line: Induction of apoptosis in human Eca-109/VCR cells assessed as late apoptotic cells at 1 uM incubated for 48 hrs by Annexin V-FITC/DAPI staining based flow cytometry analysis (reference value: 4.31 %). It counts as functional.
Test [28] is described as follows: Reversal of vincristine resistant in human Eca-109/VCR cells assessed as reversal fold by measuring ratio of lapatinib IC50 to lapatinib IC50 in presence of test compound at 5 uM incubated for 48 hrs by CCK8 assay. It counts as functional.
Test [29] has as its system Eca-109/VCR. The experiment in a line: Induction of apoptosis in human Eca-109/VCR cells assessed as necrotic cells at 1 uM incubated for 48 hrs by Annexin V-FITC/DAPI staining based flow cytometry analysis (reference value: 0.073 %). It counts as functional.
Test [30] relates to Eca-109/VCR. The experiment in a line: Inhibition of colony formation in human Eca-109/VCR cells at 0 to 12 nM incubated for 48 hrs by crystal violet staining based assay. Type of test: functional, cell-based. To be noted: dose 0-12 nM.

Consider 3 compounds from ChEMBL document CHEMBL5532696, “Discovery of new tricyclic spiroindole derivatives as potent P-glycoprotein inhibitors for reversing multidrug resistance enabled by a synthetic methodology-based library” (RSC Med Chem, 2024).

Each structure is given as a SMILES string. The source made the active and inactive calls. The calls are words filed in the database; no cut-off is given here.

Turning to `CN1C(=O)[C@@]2(c3cc(Cl)ccc31)[C@H](c1ccccc1)[C@H]1C(=O)c3cc([N+](=O)[O-])ccc3[C@H]1[C@@H]2C(=O)NC(C)(C)C`, the outcome in the test with Eca-109/VCR [1] was inactive. The “Ratio IC50” value with Eca-109/VCR [2] is reported as 471.3. Also, in the test on Eca-109/VCR [3], the viability at 5 µM was 96.7%.
In the case of `CN1C(=O)[C@@]2(c3cc(Cl)ccc31)[C@H](C(=O)NC(C)(C)C)[C@H]1c3ccc([N+](=O)[O-])cc3C(=O)[C@H]1[C@@H]2c1ccccc1`, the “Ratio IC50” value in test [4] is listed as 313.8; in test [7] it was 12; in [12], 121; in the test with Eca-109/VCR [2] it was 727.2; in test [23] it was 139.7; in test [28], 1.4. Further, the Activity in the test on Eca-109/VCR [5] came out at 0.99%; in the test with Eca-109/VCR [6], 0.064%; with Eca-109/VCR [8], 4.19%; in the test with Eca-109/VCR [9] it was 17.9%; with Eca-109/VCR [15], 1.19%; in the test on Eca-109/VCR [16], 4.28%. In addition, the Activity in the test on Eca-109/VCR [17] came out at 0.31%; with Eca-109/VCR [20], 7.54%; with Eca-109/VCR [24], 1.27%; in the test on Eca-109/VCR [26] it was 0.15%; with Eca-109/VCR [27], 4.73%; with Eca-109/VCR [29] it was 0.082%. Also, the result in the test on Eca-109/VCR [10], in the test with Eca-109/VCR [11], with Eca-109/VCR [1] and with Eca-109/VCR [14] was inactive. In addition, the viability at 1 µM was 93.9% in the test on Eca-109/VCR [13] and 91.3% with Eca-109/VCR [25]. Also, the viability at 5 µM in the test with Eca-109/VCR [18] amounted to 77.5%; in the test on Eca-109/VCR [22], 94.6%; in the test on Eca-109/VCR [3], 98.9%. Moreover, in the test on Eca-109/VCR [19], the inhibition entry was “Dose-Dependent Effect”. In addition, the inhibition entry with Eca-109/VCR [21] is “inactive”.
With `CC[C@]1(O)C[C@H]2CN(CCc3c([nH]c4ccccc34)[C@@](C(=O)OC)(c3cc4c(cc3OC)N(C=O)[C@H]3[C@@](O)(C(=O)OC)[C@H](OC(C)=O)[C@]5(CC)C=CCN6CC[C@]43[C@@H]65)C2)C1`, the inhibition result in the test on Eca-109/VCR [30] was “inactive”.
